{"source": "patent US10670605B2", "about": "“Cysteine reactive probes and uses thereof” (The Scripps Research Institute, priority 2015, dated 2020)", "test_in_all_cases": "isoTOP-ABPP of compound-treated primary human T cells", "type_in_all_cases": "cell-based", "key": {"[1]": {"biological_target": "T1, Cys residues in primary human T cells (Homo sapiens, UniProt Q9Y6C9)", "T1 sequence (Q9Y6C9 1-303)": "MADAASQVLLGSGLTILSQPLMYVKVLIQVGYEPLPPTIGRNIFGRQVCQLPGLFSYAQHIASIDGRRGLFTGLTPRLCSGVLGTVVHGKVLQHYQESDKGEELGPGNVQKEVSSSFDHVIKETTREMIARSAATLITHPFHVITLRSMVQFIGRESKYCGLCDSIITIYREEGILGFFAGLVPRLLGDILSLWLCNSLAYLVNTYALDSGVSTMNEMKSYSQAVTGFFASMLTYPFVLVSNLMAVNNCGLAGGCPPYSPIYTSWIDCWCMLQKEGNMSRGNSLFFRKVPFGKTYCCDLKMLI", "details": "MTCH2 C296 (Q9Y6C9)"}, "[2]": {"biological_target": "T2, Cys residues in primary human T cells (Homo sapiens, UniProt P54136)", "T2 sequence (P54136 1-660)": "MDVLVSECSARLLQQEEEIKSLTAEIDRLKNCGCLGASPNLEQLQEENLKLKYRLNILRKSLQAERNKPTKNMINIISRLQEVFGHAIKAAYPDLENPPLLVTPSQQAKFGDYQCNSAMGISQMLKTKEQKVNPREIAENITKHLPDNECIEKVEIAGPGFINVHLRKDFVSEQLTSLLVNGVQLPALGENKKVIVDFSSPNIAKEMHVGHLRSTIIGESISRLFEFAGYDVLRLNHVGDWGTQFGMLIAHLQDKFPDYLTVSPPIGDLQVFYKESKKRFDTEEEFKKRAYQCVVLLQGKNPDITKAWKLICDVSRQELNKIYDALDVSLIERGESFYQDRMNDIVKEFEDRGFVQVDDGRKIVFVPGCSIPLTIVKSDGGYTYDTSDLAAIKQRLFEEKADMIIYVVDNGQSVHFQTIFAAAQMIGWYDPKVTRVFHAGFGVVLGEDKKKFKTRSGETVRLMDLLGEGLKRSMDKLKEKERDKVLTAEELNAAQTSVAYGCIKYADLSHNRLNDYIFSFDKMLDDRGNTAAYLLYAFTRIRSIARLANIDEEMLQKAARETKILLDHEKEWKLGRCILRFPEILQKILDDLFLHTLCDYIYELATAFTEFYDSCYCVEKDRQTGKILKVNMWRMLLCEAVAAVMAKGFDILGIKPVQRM", "details": "RARS C32 (P54136)"}, "[3]": {"biological_target": "T3, Cys residues in primary human T cells (Homo sapiens, UniProt Q9NRW3)", "T3 sequence (Q9NRW3 1-190)": "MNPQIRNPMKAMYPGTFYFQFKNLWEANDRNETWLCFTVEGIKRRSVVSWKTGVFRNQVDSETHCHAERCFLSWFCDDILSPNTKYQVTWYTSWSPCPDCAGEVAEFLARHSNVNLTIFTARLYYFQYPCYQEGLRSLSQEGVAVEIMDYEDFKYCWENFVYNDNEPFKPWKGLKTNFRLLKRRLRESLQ", "details": "APOBEC3C C130 (Q9NRW3)"}, "[4]": {"biological_target": "T4, Cys residues in primary human T cells (Homo sapiens, UniProt Q15306)", "T4 sequence (Q15306 1-451)": "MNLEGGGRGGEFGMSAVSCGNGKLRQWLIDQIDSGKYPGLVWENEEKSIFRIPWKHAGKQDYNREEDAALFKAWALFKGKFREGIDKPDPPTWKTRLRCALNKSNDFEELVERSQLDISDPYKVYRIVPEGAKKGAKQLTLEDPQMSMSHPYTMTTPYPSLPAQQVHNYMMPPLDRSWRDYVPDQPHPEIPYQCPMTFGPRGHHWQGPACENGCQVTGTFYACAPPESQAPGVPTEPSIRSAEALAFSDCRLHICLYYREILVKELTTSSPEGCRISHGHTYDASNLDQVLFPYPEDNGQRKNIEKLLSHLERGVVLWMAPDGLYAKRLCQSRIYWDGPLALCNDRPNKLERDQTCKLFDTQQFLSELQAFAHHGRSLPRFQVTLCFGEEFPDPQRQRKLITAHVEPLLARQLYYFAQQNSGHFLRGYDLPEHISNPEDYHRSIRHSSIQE", "details": "IRF4 C194 (Q15306)"}, "[5]": {"biological_target": "T5, Cys residues in primary human T cells (Homo sapiens, UniProt Q02556)", "T5 sequence (Q02556 1-426)": "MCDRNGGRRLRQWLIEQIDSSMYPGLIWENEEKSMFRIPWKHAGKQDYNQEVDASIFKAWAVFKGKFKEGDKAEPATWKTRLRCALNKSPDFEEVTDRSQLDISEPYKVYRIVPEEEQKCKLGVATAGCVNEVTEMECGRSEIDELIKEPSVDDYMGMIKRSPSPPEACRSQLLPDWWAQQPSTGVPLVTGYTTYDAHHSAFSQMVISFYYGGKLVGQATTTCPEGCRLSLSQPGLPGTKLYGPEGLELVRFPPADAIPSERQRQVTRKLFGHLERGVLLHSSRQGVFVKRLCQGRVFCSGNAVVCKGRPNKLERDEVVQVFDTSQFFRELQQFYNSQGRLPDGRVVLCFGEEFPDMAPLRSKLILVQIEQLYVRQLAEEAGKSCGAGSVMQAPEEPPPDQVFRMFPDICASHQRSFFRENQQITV", "details": "IRF8 C306 (Q02556)"}}, "note": "Where a name gives a salt, the structure may show the parent alone."}
{"smiles": "COC(=O)/C=C/C(=O)OC", "note": "[DMF, dimethyl fumarate]", "values": [{"measurement": "R value (DMSO/DMF)", "setting": "[1]; DMF 10 μM 4h", "value": 1.68}, {"measurement": "R value (DMSO/DMF)", "setting": "[1]; DMF 50 μM 1h", "value": 1.81}, {"measurement": "R value (DMSO/DMF)", "setting": "[1]; DMF 50 μM 2h", "value": 2.44}, {"measurement": "R value (DMSO/DMF)", "setting": "[1]; DMF 50 μM 4h", "value": 4.3}, {"measurement": "R value (DMSO/DMF)", "setting": "[2]; DMF 10 μM 4h", "value": 0.62}, {"measurement": "R value (DMSO/DMF)", "setting": "[2]; DMF 25 μM 4h", "value": 4.03}, {"measurement": "R value (DMSO/DMF)", "setting": "[2]; DMF 50 μM 1h", "value": 2.58}, {"measurement": "R value (DMSO/DMF)", "setting": "[2]; DMF 50 μM 2h", "value": 3.58}, {"measurement": "R value (DMSO/DMF)", "setting": "[2]; DMF 50 μM 4h", "value": 5.02}, {"measurement": "R value (DMSO/DMF)", "setting": "[3]; DMF 10 μM 4h", "value": 1.92}, {"measurement": "R value (DMSO/DMF)", "setting": "[3]; DMF 50 μM 1h", "value": 8.6}, {"measurement": "R value (DMSO/DMF)", "setting": "[3]; DMF 50 μM 2h", "value": 20}, {"measurement": "R value (DMSO/DMF)", "setting": "[3]; DMF 50 μM 4h", "value": 20}, {"measurement": "R value (DMSO/DMF)", "setting": "[4]; DMF 10 μM 4h", "value": 1.69}, {"measurement": "R value (DMSO/DMF)", "setting": "[4]; DMF 25 μM 4h", "value": 1.78}, {"measurement": "R value (DMSO/DMF)", "setting": "[4]; DMF 50 μM 1h", "value": 1.32}, {"measurement": "R value (DMSO/DMF)", "setting": "[4]; DMF 50 μM 2h", "value": 3.13}, {"measurement": "R value (DMSO/DMF)", "setting": "[4]; DMF 50 μM 4h", "value": 5.25}, {"measurement": "R value (DMSO/DMF)", "setting": "[5]; DMF 10 μM 4h", "value": 1.9}, {"measurement": "R value (DMSO/DMF)", "setting": "[5]; DMF 50 μM 1h", "value": 1.66}, {"measurement": "R value (DMSO/DMF)", "setting": "[5]; DMF 50 μM 4h", "value": 5.32}]}
